Patent US20240270692A1, “S(+) FORM OF 4-(2,4-DIFLUOROPHENYL)-2-(1H-INDOL-3-YL)-4-OXO-BUTANOIC ACID” (TOHOKU UNIVERSITY, priority 2021, published 2024)
pKd: −log10 of the molar value.

Assays:
[1] = biological target: T1, nicotinamide phosphoribosyltransferase (Nampt) (Homo sapiens, UniProt P43490); experiment: Nampt binding test (Octet K2); conditions: for binding to Nampt: Octet K2, biotin Nampt
T1 construct: biotin (biotinylated protein)
Procedure: The binding of the S(+) form of MA5 and the R(−) form of MA5 to nicotinamide phosphoribosyltransferase (Nampt), which is a key enzyme of the mammalian NAD^+ synthesis system, was measured by using Octet K2.
A 0.01% DDM PBS solution was prepared as a measurement buffer. 1 μL of biotin Nampt was added to 1000 μL of the measurement buffer. This was diluted 2-fold to obtain a 0.4 ng/μL ligand solution. A DMSO solution of a 100 mM MA5 S(+) form was diluted from 300 µM to 1000 μM, a DMSO solution of a 100 mM MA5 R(−) form was diluted from 500 μM to 1200 μM, and the diluted solutions were each used as an analyte solution. 200 μL each of the measurement buffer, a 1 μM biotin solution, a ligand solution, a 100 μM biocytin solution, and the analyte solution were added to a 96-well plate, and the plate was set in Octet K2 to carry out the measurement. Data were analyzed by using the accompanying software. Kd values were represented graphically with Prism 9 by using the concentrations of the analyte solution and the numerical values of Req (nm) calculated by the analysis.

MT-ND3 mutant cell line = experiment: Cytotoxicity evaluation 2: cell survival level by MTT assay (Cell Counting Kit-8); format: cell-based, human; conditions: high concentrations (30 μM and 100 μM), cultured 5 days
Procedure: Hereinafter, the present invention will be described more specifically with reference to Examples, but the technical scope of the present invention is not limited to these Examples. The INS-1E cell line was cultured in an incubator (37° C., 21% O2, 5% CO2) in the presence of RPMI-1640 Medium (manufactured by GIBCO) containing 11.1 mM glucose, 10% FBS, 1 mM sodium pyruvate, 10 mM HEPES, 2 mM glutamine, 50 μM β-mercaptoethanol, penicillin at 100 U/mL, and streptomycin at 100 μg/mL (hereinafter simply referred to as “RPMI-1640 Medium”). […]
An MT-ND3 mutant cell line was seeded in a 96-well plate at 2×10^3 cells per well and cultured for 2 days in the presence of DMEM Low Glucose culture medium, then 0.1% DMSO, which is a solvent for the compounds, or various concentrations (0.003 μM, 0.01 μM, 0.03 μM, […], 0.3 μM, 1 μM, 3 μM, 10 μM, 30 μM, or 100 μM) of each enantiomer (S(+) form or R(−) form) of MA5 was added, the cells were further cultured for 5 days, and then the cell survival level was measured. Specifically, the cell survival level was measured by an MTT assay using Cell Counting Kit-8 (manufactured by Dojindo Laboratories). That is, 100 μL of Cell Count Reagent SF was added to each well, incubated for 2 hours, and stirred for 3 seconds with a microplate reader, and the absorbance at 450 nm (reference: 750 nm) was measured (see FIG. 4). […]

HEI-OC1 cell line = experiment: Evaluation of SIRT expression level in animal cells (Western blotting); format: cell-based, mouse; conditions: 1 to 30 μM, cultured 24 hours, compared with absence of the compound
Procedure: A mouse inner ear cell line (HEI-OC1 cell line) was seeded in a dish containing 10 mL of a culture medium (low glucose DMEM medium [glucose concentration of […]] supplemented with 10% by weight of FBS) at 1×10^6 cells/dish and cultured. One day after, 0.1% DMSO, which is a solvent for the compounds, or various concentrations (1 μM, 3 μM, 10 μM, or 30 μM) of three compounds (racemic form of MA5, S(+) form of MA5, or R(−) form of MA5) were added, and the cells were cultured for 24 hours. After the culture was completed, the cells were collected, the cells were disrupted by a conventional method, and the expression levels of various SIRTs (SIRT1, SIRT2, SIRT3, SIRT5, SIRT6, and SIRT7) in the cells were analyzed by Western blotting (see FIGS. 12 to 14 [FIG. 12-1 to FIG. 14-2]).

T1 sequence (P43490 whole entry, species assumed): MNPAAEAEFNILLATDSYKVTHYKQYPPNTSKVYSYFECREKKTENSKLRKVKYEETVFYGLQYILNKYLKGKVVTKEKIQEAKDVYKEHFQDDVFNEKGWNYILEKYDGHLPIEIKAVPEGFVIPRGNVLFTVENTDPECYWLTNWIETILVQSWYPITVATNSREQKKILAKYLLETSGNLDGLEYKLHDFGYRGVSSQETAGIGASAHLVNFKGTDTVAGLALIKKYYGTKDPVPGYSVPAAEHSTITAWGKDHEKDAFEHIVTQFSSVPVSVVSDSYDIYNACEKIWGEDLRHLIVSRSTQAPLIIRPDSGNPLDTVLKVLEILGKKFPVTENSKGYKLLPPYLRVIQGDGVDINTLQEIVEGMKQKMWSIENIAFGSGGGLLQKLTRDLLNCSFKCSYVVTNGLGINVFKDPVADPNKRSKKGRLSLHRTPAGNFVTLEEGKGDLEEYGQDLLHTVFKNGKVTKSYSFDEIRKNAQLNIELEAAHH

Row | pKd ([1]; NAMPT, Octet K2) | binding to Nampt [1] | binding to Nampt ([1]; listed as R(−) form) | Compound | viable cell level (MT-ND3 mutant cell line) | expression levels of the various SIRTs (SIRT1, SIRT2, SIRT3, SIRT5, SIRT6, and SIRT7) in the cells (HEI-OC1 cell line)
1 | 4.23 | binds to Nampt |  | O=C(C[C@H](C(=O)O)c1c[nH]c2ccccc12)c1ccc(F)cc1F [S(+) form of MA5, 4-(2,4-difluorophenyl)-2-(1H-indol-3-yl)-4-oxo-butanoic acid] | no decrease in viable cell level was observed | increased
2 |  | did not bind to NAMPT | does not bind to Nampt | O=C(C[C@@H](C(=O)O)c1c[nH]c2ccccc12)c1ccc(F)cc1F [R(−) form of MA5, 4-(2,4-difluorophenyl)-2-(1H-indol-3-yl)-4-oxo-butanoic acid] | a significant decrease in viable cell level was observed | remained almost unchanged
